# Measured values as given in patent US11161854B2, “Indazolyl-spiro[2.2]pentane-carbonitrile derivatives as LRRK2 inhibitors, pharmaceutical compositions, and uses thereof” (Merck Sharp & Dohme Corp., priority 2017, dated 2021).
# pIC50: −log10 of the molar value.
# Molecular target: GST-tagged truncated human mutant G2019S LRRK2 (Homo sapiens (Human), UniProt Q5S007, G2019S)
# Test: LRRK2 G2019S Km ATP LanthaScreen Assay
# Assay type: biochemical
# Conditions: 134 μM ATP (Km ATP); fluorescein-labeled LRRKtide substrate; mean IC50 values
# Protocol: The IC50 values reported herein were measured as follows.
# Biological Assay: LRRK2 Km ATP LanthaScreen™ Assay
# The data presented for the Km ATP LanthaScreen™ Assay represents mean IC50 values based on several test results and may have reasonable deviations depending on the specific conditions and reagents used. Assays were performed in the presence of 134 μM ATP (Km ATP). Upon completion, the assay was stopped and phosphorylated substrate detected with a terbium (Tb)-labeled anti-pERM antibody (cat. no. PV4898). The compound dose response was prepared by diluting a 10 mM stock of compound to a maximum concentration of […] in 100% dimethylsulfoxide followed by custom fold serial dilution in dimethylsulfoxide nine times. Twenty nanoliters of each dilution was spotted via a Labcyte Echo onto a 384-well black-sided plate (Corning 3575) followed by 15 μl of a 1.25 nM enzyme solution in 1× assay buffer (50 mM Tris pH 8.5, 10 mM MgCl2, 0.01% Brij-35, 1 mM EGTA, 2 mM dithiothreitol, 0.05 mM sodium orthovanadate). Following a 15-minute incubation at room temperature, the kinase reaction was started with the addition of 5 μl of 400 nM fluorescein-labeled LRRKtide peptide substrate and 134 μM ATP solution in 1× assay buffer. The reaction was allowed to progress at ambient temperature for 90 minutes. The reaction was then stopped by the addition of 20 μl of TR-FRET Dilution Buffer (Life Technologies, Carlsbad, Calif.) containing 2 nM Tb-labeled anti-phospho LRRKtide antibody and 10 mM EDTA (Life Technologies, Carlsbad, Calif.). After an incubation of 1 hour at room temperature, the plate was read on an EnVision multimode plate reader (Perkin Elmer, Waltham, Mass.) with an excitation wavelength of 337 nm (Laser) and a reading emission at both 520 and 495 nm. […] Abase uses a 4 parameter (4P) logistic fit based on the Levenberg-Marquardt algorithm.
# Sequence of GST-tagged truncated human mutant G2019S LRRK2 (Q5S007 970-2527 G2019S): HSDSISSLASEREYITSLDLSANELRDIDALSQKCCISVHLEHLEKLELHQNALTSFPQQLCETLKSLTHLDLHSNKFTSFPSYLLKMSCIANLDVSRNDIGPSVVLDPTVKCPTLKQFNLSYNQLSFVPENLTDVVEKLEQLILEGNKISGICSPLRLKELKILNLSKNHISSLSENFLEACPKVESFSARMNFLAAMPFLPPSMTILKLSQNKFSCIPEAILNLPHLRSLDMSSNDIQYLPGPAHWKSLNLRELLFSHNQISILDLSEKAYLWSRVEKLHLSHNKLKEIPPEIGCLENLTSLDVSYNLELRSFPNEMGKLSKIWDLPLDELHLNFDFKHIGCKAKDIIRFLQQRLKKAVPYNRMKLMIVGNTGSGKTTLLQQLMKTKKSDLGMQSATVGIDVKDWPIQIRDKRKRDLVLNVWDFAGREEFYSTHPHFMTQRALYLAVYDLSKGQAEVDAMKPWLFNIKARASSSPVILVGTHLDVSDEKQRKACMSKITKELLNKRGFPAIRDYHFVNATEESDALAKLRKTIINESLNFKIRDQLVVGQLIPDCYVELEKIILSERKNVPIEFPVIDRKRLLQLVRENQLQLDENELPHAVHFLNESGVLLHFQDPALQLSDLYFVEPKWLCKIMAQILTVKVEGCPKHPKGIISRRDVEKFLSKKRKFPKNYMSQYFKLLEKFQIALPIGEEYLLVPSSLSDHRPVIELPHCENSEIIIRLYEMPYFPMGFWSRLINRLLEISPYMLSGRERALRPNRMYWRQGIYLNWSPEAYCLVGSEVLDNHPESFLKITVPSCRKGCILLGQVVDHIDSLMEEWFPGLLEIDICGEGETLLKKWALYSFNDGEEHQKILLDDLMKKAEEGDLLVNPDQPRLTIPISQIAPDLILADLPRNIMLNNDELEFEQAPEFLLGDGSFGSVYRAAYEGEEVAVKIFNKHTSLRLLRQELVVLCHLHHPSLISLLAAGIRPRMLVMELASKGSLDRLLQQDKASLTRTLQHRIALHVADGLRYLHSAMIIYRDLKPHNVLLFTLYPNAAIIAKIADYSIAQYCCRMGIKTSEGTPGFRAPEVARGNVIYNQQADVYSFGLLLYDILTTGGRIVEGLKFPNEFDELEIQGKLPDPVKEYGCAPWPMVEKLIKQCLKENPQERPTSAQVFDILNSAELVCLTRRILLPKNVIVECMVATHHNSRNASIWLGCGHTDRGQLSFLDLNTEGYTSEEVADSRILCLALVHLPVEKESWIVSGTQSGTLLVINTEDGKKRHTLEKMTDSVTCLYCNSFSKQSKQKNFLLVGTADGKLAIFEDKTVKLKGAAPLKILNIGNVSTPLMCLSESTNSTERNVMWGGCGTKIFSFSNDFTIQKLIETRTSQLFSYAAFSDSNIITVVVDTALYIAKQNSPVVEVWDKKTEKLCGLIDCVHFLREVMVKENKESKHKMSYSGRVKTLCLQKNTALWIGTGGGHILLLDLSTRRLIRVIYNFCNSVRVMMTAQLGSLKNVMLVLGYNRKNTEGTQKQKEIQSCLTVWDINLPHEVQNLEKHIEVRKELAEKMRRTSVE
row,SMILES,pIC50
1,"CC(C)(O)[C@@H]1CCN(c2cc(-n3ncc4ccc(C5(C#N)CC56CC6)cc43)ncn2)C1 (single isomer, unassigned) [Example 1.4-1, (R or S)-1-(1-(6-((R)-3-(2-hydroxypropan-2-yl)pyrrolidin-1-yl)pyrimidin-4-yl)-1H-indazol-6-yl)spiro[2.2]pentane-1-carbonitrile]",9.00
2,"COCc1nc(N2CC3(C(C)(C)O)CC2C3)cc(-n2ncc3ccc(C4(C#N)CC45CC5)cc32)n1 (single isomer, unassigned) [Example 2.3-1, (R or S)-1-(1-(6-(4-(2-hydroxypropan-2-yl)-2-azabicyclo[2.1.1]hexan-2-yl)-2-(methoxymethyl)pyrimidin-4-yl)-1H-indazol-6-yl)spiro[2.2]pentane-1-carbonitrile]",8.96
3,"COCc1nc(N2CC3(C(C)(C)O)CC2C3)cc(-n2ncc3ccc(C4(C#N)CC45CC5)cc32)n1 (single isomer, unassigned) [Example 2.3-2, (R or S)-1-(1-(6-(4-(2-hydroxypropan-2-yl)-2-azabicyclo[2.1.1]hexan-2-yl)-2-(methoxymethyl)pyrimidin-4-yl)-1H-indazol-6-yl)spiro[2.2]pentane-1-carbonitrile]",8.92
4,"Cc1nc(N2CC3(C(C)(C)O)CC2C3)cc(-n2ncc3ccc(C4(C#N)CC45CC5)cc32)n1 (single isomer, unassigned) [Example 2.4-1, 1-(1-(6-(4-(2-hydroxypropan-2-yl)-2-azabicyclo[2.1.1]hexan-2-yl)-2-methylpyrimidin-4-yl)-1H-indazol-6-yl)spiro[2.2]pentane-1-carbonitrile]",8.68
5,"Cc1nc(N2CC3(C(C)(C)O)CC2C3)cc(-n2ncc3ccc(C4(C#N)CC45CC5)cc32)n1 (single isomer, unassigned) [Example 2.4-2, 1-(1-(6-(4-(2-hydroxypropan-2-yl)-2-azabicyclo[2.1.1]hexan-2-yl)-2-methylpyrimidin-4-yl)-1H-indazol-6-yl)spiro[2.2]pentane-1-carbonitrile]",9.22
6,"COc1nc(N2CC3(C(C)(C)O)CC2C3)cc(-n2ncc3ccc(C4(C#N)CC45CC5)cc32)n1 (single isomer, unassigned) [Example 2.5-1, 1-(1-(6-(4-(2-hydroxypropan-2-yl)-2-azabicyclo[2.1.1]hexan-2-yl)-2-methoxypyrimidin-4-yl)-1H-indazol-6-yl)spiro[2.2]pentane-1-carbonitrile]",9.05
7,"COc1nc(N2CC3(C(C)(C)O)CC2C3)cc(-n2ncc3ccc(C4(C#N)CC45CC5)cc32)n1 (single isomer, unassigned) [Example 2.5-2, 1-(1-(6-(4-(2-hydroxypropan-2-yl)-2-azabicyclo[2.1.1]hexan-2-yl)-2-methoxypyrimidin-4-yl)-1H-indazol-6-yl)spiro[2.2]pentane-1-carbonitrile]",9.10
8,"CNc1nc(N2CC3(C(C)(C)O)CC2C3)cc(-n2ncc3ccc(C4(C#N)CC45CC5)cc32)n1 (single isomer, unassigned) [Example 2.7-1, 1-(1-(6-(4-(2-hydroxypropan-2-yl)-2-azabicyclo[2.1.1]hexan-2-yl)-2-(methylamino)pyrimidin-4-yl)-1H-indazol-6-yl)spiro[2.2]pentane-1-carbonitrile]",8.52
9,"CNc1nc(N2CC3(C(C)(C)O)CC2C3)cc(-n2ncc3ccc(C4(C#N)CC45CC5)cc32)n1 (single isomer, unassigned) [Example 2.7-2, 1-(1-(6-(4-(2-hydroxypropan-2-yl)-2-azabicyclo[2.1.1]hexan-2-yl)-2-(methylamino)pyrimidin-4-yl)-1H-indazol-6-yl)spiro[2.2]pentane-1-carbonitrile]",9.22
10,"CNc1nc(N2CC[C@H](C(F)F)C2)cc(-n2ncc3ccc(C4(C#N)CC45CC5)cc32)n1 (single isomer, unassigned) [Example 2.8-1]",9.15
11,"CNc1nc(N2CC[C@H](C(F)F)C2)cc(-n2ncc3ccc(C4(C#N)CC45CC5)cc32)n1 (single isomer, unassigned) [Example 2.8-2]",8.96
12,"C[C@H]1CN(c2cc(-n3ncc4ccc(C5(C#N)CC56CC6)cc43)ncn2)CCN1C1COC1 (single isomer, unassigned) [Example 3.1, (R or S)-1-(1-(6-((S)-3-methyl-4-(oxetan-3-yl)piperazin-1-yl)pyrimidin-4-yl)-1H-indazol-6-yl)spiro[2.2]pentane-1-carbonitrile]",9.22
13,"CC1C(C(C)(C)O)CCN1c1cc(-n2ncc3ccc([C@@]4(C#N)CC45CC5)cc32)ncn1 (single isomer, unassigned) [Example 3.5-1]",6.91
14,"CC1C(C(C)(C)O)CCN1c1cc(-n2ncc3ccc([C@]4(C#N)CC45CC5)cc32)ncn1 (single isomer, unassigned) [Example 3.5-2]",7.50
15,"CC1C(C(C)(C)O)CCN1c1cc(-n2ncc3ccc([C@@]4(C#N)CC45CC5)cc32)ncn1 (single isomer, unassigned) [Example 3.5-3]",8.72
16,"CC1C(C(C)(C)O)CCN1c1cc(-n2ncc3ccc([C@@]4(C#N)CC45CC5)cc32)ncn1 (single isomer, unassigned) [Example 3.5-4]",9.22
17,"CC1C(C(C)(C)O)CCN1c1cc(-n2ncc3ccc([C@@]4(C#N)CC45CC5)cc32)ncn1 (single isomer, unassigned) [Example 3.5-5]",7.56
18,"CC1C(C(C)(C)O)CCN1c1cc(-n2ncc3ccc([C@]4(C#N)CC45CC5)cc32)ncn1 (single isomer, unassigned) [Example 3.5-6]",8.31

row,SMILES,pIC50
1,"CC1C(C(C)(C)O)CCN1c1cc(-n2ncc3ccc([C@@]4(C#N)CC45CC5)cc32)ncn1 (single isomer, unassigned) [Example 3.5-7]",8.29
2,"CC1C(C(C)(C)O)CCN1c1cc(-n2ncc3ccc([C@]4(C#N)CC45CC5)cc32)ncn1 (single isomer, unassigned) [Example 3.5-8]",8.96
3,"CC1CN(c2cc(-n3ncc4ccc([C@@]5(C#N)CC56CC6)cc43)ncn2)CC1C(C)(C)O (single isomer, unassigned) [Example 3.6-1]",8.66
4,"CC1CN(c2cc(-n3ncc4ccc([C@]5(C#N)CC56CC6)cc43)ncn2)CC1C(C)(C)O (single isomer, unassigned) [Example 3.6-2]",9.22
5,"CC1CN(c2cc(-n3ncc4ccc([C@@]5(C#N)CC56CC6)cc43)ncn2)CC1C(C)(C)O (single isomer, unassigned) [Example 3.6-3]",8.01
6,"CC1CN(c2cc(-n3ncc4ccc([C@]5(C#N)CC56CC6)cc43)ncn2)CC1C(C)(C)O (single isomer, unassigned) [Example 3.6-4]",8.68
7,"C[C@@H]1CN(c2cc(-n3ncc4ccc([C@@]5(C#N)CC56CC6)cc43)ncn2)CCN1C1CCOC1 (single isomer, unassigned) [Example 3.7-1]",8.10
8,"C[C@@H]1CN(c2cc(-n3ncc4ccc([C@]5(C#N)CC56CC6)cc43)ncn2)CCN1C1CCOC1 (single isomer, unassigned) [Example 3.7-2]",8.77
9,"C[C@@H]1CN(c2cc(-n3ncc4ccc([C@@]5(C#N)CC56CC6)cc43)ncn2)CCN1C1CCOC1 (single isomer, unassigned) [Example 3.7-3]",8.05
10,"C[C@@H]1CN(c2cc(-n3ncc4ccc([C@]5(C#N)CC56CC6)cc43)ncn2)CCN1C1CCOC1 (single isomer, unassigned) [Example 3.7-4]",8.70
11,"C[C@H]1CN(c2cc(-n3ncc4ccc([C@@]5(C#N)CC56CC6)cc43)ncn2)CCN1C1CCOC1 (single isomer, unassigned) [Example 3.8-1]",8.80
12,"C[C@H]1CN(c2cc(-n3ncc4ccc([C@@]5(C#N)CC56CC6)cc43)ncn2)CCN1C1CCOC1 (single isomer, unassigned) [Example 3.8-2]",9.10
13,"C[C@H]1CN(c2cc(-n3ncc4ccc([C@@]5(C#N)CC56CC6)cc43)ncn2)CCN1C1CCOC1 (single isomer, unassigned) [Example 3.8-3]",8.89
14,"COC1(C(C)(C)O)CCN(c2cc(-n3ncc4ccc([C@@]5(C#N)CC56CC6)cc43)ncn2)C1 (single isomer, unassigned) [Example 3.10-1]",7.82
15,"COC1(C(C)(C)O)CCN(c2cc(-n3ncc4ccc([C@]5(C#N)CC56CC6)cc43)ncn2)C1 (single isomer, unassigned) [Example 3.10-2]",8.68
16,"COC1(C(C)(C)O)CCN(c2cc(-n3ncc4ccc([C@@]5(C#N)CC56CC6)cc43)ncn2)C1 (single isomer, unassigned) [Example 3.10-3]",8.51
17,"COC1(C(C)(C)O)CCN(c2cc(-n3ncc4ccc([C@]5(C#N)CC56CC6)cc43)ncn2)C1 (single isomer, unassigned) [Example 3.10-4]",9.05
18,"N#C[C@]1(c2ccc3cnn(-c4cc(N5CC(O)C6(CC6)C5)ncn4)c3c2)CC12CC2 (single isomer, unassigned) [Example 3.11-1]",8.17
